Consider four compounds from US8207198B2, “Substituted triazole derivatives as oxytocin antagonists” (Pfizer Inc., priority 2005, dated 2012).

The test concerns the target T1, oxytocin receptor (CHO-OTR/NFAT-β-Lactamase cells) (Homo sapiens, UniProt P30559).
T1 construct: expressed in transfected cells; host or cells: CHO-OTR cell line, further transfected with the NFAT-β-lactamase reporter construct
T1 sequence (P30559 1-389): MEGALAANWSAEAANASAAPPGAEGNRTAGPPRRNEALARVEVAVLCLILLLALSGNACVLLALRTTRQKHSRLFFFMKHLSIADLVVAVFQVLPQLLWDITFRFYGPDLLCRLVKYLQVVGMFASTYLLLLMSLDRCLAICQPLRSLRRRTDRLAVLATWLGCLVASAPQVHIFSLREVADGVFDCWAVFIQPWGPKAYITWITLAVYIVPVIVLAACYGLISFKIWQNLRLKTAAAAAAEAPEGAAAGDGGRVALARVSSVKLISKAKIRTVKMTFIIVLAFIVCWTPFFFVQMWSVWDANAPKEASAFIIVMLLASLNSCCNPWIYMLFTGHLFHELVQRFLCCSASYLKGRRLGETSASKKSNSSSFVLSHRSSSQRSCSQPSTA
Briefly: Oxytocin Receptor Beta-Lactamase Assay. As to conditions: oxytocin stimulation, read-out: oxytocin antagonist activity, expressed as a Ki value. The test is classed as cell-based. On the procedure: A suitable assay for determining the oxytocin antagonist activity of a compound is detailed herein below.
Oxytocin Receptor Beta-Lactamase Assay
Cell Culture Cells used are CHO-OTR/NFAT-β-Lactamase. The NFAT-β-lactamase expression construct was transfected into the CHO-OTR cell line and clonal populations were isolated via fluorescence activated cell sorting (FACS). An appropriate clone was selected to develop the assay. Growth Medium 90% F12 Nutrient Mix, 15 mM HEPES 10% FBS 400 μg/ml Geneticin 200 μg/ml Zeocin 2 mM L-Glutamine Assay Media 99.5% F12 Nutrient Mix, 15 mM HEPES 0.5% FBS
Recovery of cells—A vial of frozen cells is thawed rapidly in 37° C. water bath and the cell suspension transferred into a T225 flask with 50 ml of fresh growth medium and then incubated at 37° C., 5% CO2 in an incubator until the cells adhered to the flask Replace media with 50 ml of fresh growth media the following day.
Culturing cells—CHO-OTR-NFAT-βLactamase cells were grown in growth medium. Cells were harvested when they reached 80-90% confluence removing the medium and washing with pre-warmed PBS. PBS was then removed and Trypsin/EDTA added (3 mls for T225 cm^2 flask) before incubating for 5 min in 37° C./5% CO2 incubator. When cells were detached, pre-warmed growth media was added (7 mls for T225 cm^2 flask) and the cells re-suspended and mixed gently by pipetting to achieve single cell suspension. The cells were split into T225 flask at 1:10 (for 3 days growth) and 1:30 (for 5 days growth) ratio in 35 ml growth medium.
Cells grown at 80-90% confluence were harvested and counted. Suspensions of cells at 2×10^5 cells/ml in growth medium were prepared and 30 μl of cells suspension added in 384-well, black clear-bottom plates. A blank plate containing diluents from each reagent was used for background subtraction.
Plates were incubated at 37° C., 5% CO2 overnight. […]
Preparation of 1 ml of 6× Loading Buffer with Enhanced Loading Protocol (this requires scale-up according to number of plates to be screened). • 12 μl of solution A (1 mM CCF4-AM in Dry DMSO) was added to […] of solution B (100 mg/ml Pluronic-F127 in DMSO+0.1% Acetic Acid) and vortexed. • The resulting solution was added to 925 μl of solution C (24% w/w PEG400, 18% TR40 v/v in water). • 75 μl of solution D was added (200 mM probenecid in 200 mM NaOH). • 10 μl of 6× Loading Buffer was added to all wells and incubated for 1.5 hrs-2 hrs at room temperature in the dark. • The plates were read using an LJL Analyst, Excitation 405 nm, Emission 450 nm and 530 nm, gain optimal, lagtime 0.40 μs integration, 4 flashes, bottom reading.

As usually defined, the Ki is a measure of affinity in units of concentration, obtained from inhibition or displacement. Regarding `COCc1nnc(N2CCC(Oc3cccc(F)c3C)CC2)n1-c1ccc(OC)nc1` [Example 48], the Ki turned out to be 1.8 nM.
For the compound `COc1ccc(-n2c(C)nnc2N2CCC(Oc3ccc(F)cc3C)CC2)cn1` [Example 43], the Ki was 4.2 nM.
Take `COCc1nnc(N2CC(Oc3cccc(C)c3C)C2)n1-c1ccc(OC)nc1` [Example 28]: the Ki was 13.8 nM.
In the case of `COCc1nnc(N2CC(Oc3ccc(F)cc3Cl)C2)n1-c1ccc(OC)nc1` [Example 25] it was 9 nM.
